{"source": "patent US20210025895A1", "about": "“CANCER SERUM BIOMARKERS AND METHODS OF USE THEREOF” (X4 Pharmaceuticals, Inc., priority 2018, published 2021)", "key": {"CXCL9": {"system": "CXCL9", "assay": "Serum CXCL9 in melanoma patients, Multi-Analyte Profile Platform (Myriad RBM)", "format": "in vivo, human", "details": "individual melanoma patients", "protocol": "(§1) Subjects were first screened and evaluated for baseline measurements.\n(§2) Prior to treatment two (2) baseline serum samples were collected from each patient.\n(§3) Three (3) weeks after treatment was initiated, additional serum samples were collected from each patient. Additional biopsy samples were also collected unless the attending physician recommended against the biopsy. Following sample collection, subjects were administered the first of two doses of pembrolizumab (2 mg/kg, i.v.).\n(§4) Three (3) weeks after the administration of the first dose of pembrolizumab (six weeks from beginning of treatment) additional serum samples were collected from each patient. Subjects then administered a second dose of pemrolizumab (2 mg/kg, i.v.).\n(§5) Three (3) weeks after the administration of the second dose of pembrolizumab (nine weeks from the beginning of treatment) additional serum samples were collected. Additional biopsy samples were also collected unless the attending physician recommended against the biopsy.\n(§6) Five (5) additional patients were evaluated. Baselines in Tables 1 and 2 represent measurements taken on Day 1. Baselines in Tables 1a and 2a represent an average of two measurements taken at screening and on Day 1."}, "[1]": {"system": "advanced or metastatic melanoma", "assay": "Tumor sample / tumor microenvironment biomarkers in solid tumors such as melanoma", "format": "in vivo, human", "protocol": "A primary comparison is the density of specific cell phenotypes in the tumor microenvironment in the pre-treatment biopsy vs. the Week 4 and EOT biopsies. CD8^+ T cells/mm^−2 are measured in melanoma tumor parenchyma prior to treatment."}, "[2]": {"details": "Phase 1 and 2a trials; cited from earlier work"}, "[3]": {"system": "serum cytokines and chemokines", "assay": "Serum chemokines, cytokines and growth factors in melanoma patients, change vs baseline", "format": "in vivo, human", "protocol": "as §1, §2, §3, §6"}, "Solubility of X4P-001": {"assay": "Solubility of X4P-001", "format": "physicochemical"}, "[4]": {"system": "melanoma, renal cell carcinoma, and ovarian cancer", "details": "murine models; cited from earlier work"}, "in vivo": {"assay": "in vivo", "details": "terminal half-life (T1/2)"}, "CXCL10": {"system": "CXCL10", "assay": "Serum CXCL10 in melanoma patients, Multi-Analyte Profile Platform (Myriad RBM)", "format": "in vivo, human", "details": "individual melanoma patients", "protocol": "as §1, §2, §3, §4, §5, §6"}, "[5]": {"system": "advanced clear-cell renal-cell carcinoma", "details": "cited from earlier work; for objective response rate: Phase 3, nivolumab 3 mg/kg iv every two weeks vs everolimus 10 mg orally daily, P<0.001"}, "[6]": {"system": "pancreatic adenocarcinoma", "details": "cited from earlier work"}, "[7]": {"system": "unresectable or metastatic melanoma", "details": "Phase 3 trial, P<0.001; cited from earlier work"}, "[8]": {"details": "solid tumors, e.g. advanced or metastatic melanoma"}}, "note": "Several values for one entry are separate records, joined by “and”; a condition that tells them apart may be missing. Identical values can stand only once."}
{"compound": "NCCCCN(Cc1nc2ccccc2[nH]1)[C@H]1CCCc2cccnc21", "note": "[X4P-001]", "values": [{"measurement": "Patient Serum CXCL9 Levels, Post-X4P-001 Monotherapy", "setting": "CXCL9; Table 1, three weeks single agent therapy", "result": "836 pg/mL and 2260 pg/mL and 2530 pg/mL and 843 pg/mL and 2020 pg/mL and 1020 pg/mL and 1410 pg/mL and 766 pg/mL and 794 pg/mL and 1380 pg/mL and 425 pg/mL"}, {"measurement": "Patient Serum CXCL9 Levels, Post-X4P-001 Monotherapy", "setting": "CXCL9; Table 1a (updated data, 16 patients)", "result": "836 pg/mL and 2260 pg/mL and 2530 pg/mL and 843 pg/mL and 2020 pg/mL and 1020 pg/mL and 1410 pg/mL and 766 pg/mL and 1245 pg/mL and 769.5 pg/mL and 460.5 pg/mL and 1030 pg/mL and 1750 pg/mL and 794 pg/mL and 1380 pg/mL and 425 pg/mL"}, {"measurement": "levels of Treg cells", "setting": "[1]; [8]", "result": "without significantly increasing levels of Treg cells"}, {"measurement": "levels of macrophages in the tumor", "setting": "[1]; [8]", "result": "without significantly modulating levels of macrophages in the tumor"}, {"measurement": "numbers of CD8+ T cells and/or CD4+ T cells in tumors", "setting": "[1]; [8]", "result": "increases observed numbers of CD8^+ T cells and/or CD4^+ T cells"}, {"measurement": "IFN-γ gene signature", "setting": "[1]; tumor", "result": "increases one or more of a panel of IFN-γ related genes"}, {"measurement": "PD-L1 expression", "setting": "[1]; tumor samples and tumor microenvironment", "result": "increases PD-L1 expression in tumor samples and the tumor microenvironment"}, {"measurement": "CTL signature gene expression", "setting": "[1]; tumor samples or tumor microenvironment", "result": "increases gene expression of one or more of a panel of cytotoxic T cell (CTL)-related genes"}, {"measurement": "pharmacodynamic activity, circulating white blood cells (WBCs)", "setting": "[2]", "result": "dose- and concentration-related changes in circulating white blood cells"}, {"measurement": "volume of distribution (VL)", "setting": "[2]", "result": "high volume of distribution"}, {"measurement": "serum CXCL9 and CXCL10 levels", "setting": "[3]; following monotherapy, melanoma patients", "result": "generally increase following monotherapy"}, {"measurement": "levels of serum CXCL9 and CXCL10", "setting": "[3]; patients with solid tumors, e.g. advanced or metastatic melanoma", "result": "increases levels of serum CXCL9 and CXCL10"}, {"measurement": "levels of serum cytokine panel", "setting": "[3]; serum", "result": "modulates levels of one or more of a panel of serum cytokines"}, {"measurement": "solubility", "setting": "Solubility of X4P-001; aqueous buffer, pH range 3.0 to 8.0 (freely soluble)", "result": "> 100", "unit": "mg/mL"}, {"measurement": "solubility in water", "setting": "Solubility of X4P-001; water", "result": "only slightly soluble"}, {"measurement": "anti-tumor activity, including decreased metastasis and increased overall survival", "setting": "[4]", "result": "significant anti-tumor activity"}, {"measurement": "half-life", "setting": "in vivo", "result": "12 to 24", "unit": "h"}, {"measurement": "Patient Serum CXCL10 Levels, Post-X4P-001 Monotherapy", "setting": "CXCL10; Table 2, three weeks single agent therapy", "result": "767 pg/mL and 146 pg/mL and 262 pg/mL and 101 pg/mL and 123 pg/mL and 384 pg/mL and 118 pg/mL and 174 pg/mL and 139 pg/mL and 331 pg/mL and 521 pg/mL"}, {"measurement": "Patient Serum CXCL10 Levels, Post-X4P-001 Monotherapy", "setting": "CXCL10; Table 2a (updated data, 16 patients)", "result": "767 pg/mL and 146 pg/mL (2×) and 262 pg/mL and 101 pg/mL and 123 pg/mL and 384 pg/mL and 118 pg/mL and 174 pg/mL and 272 pg/mL and 166 pg/mL and 350 pg/mL and 139 pg/mL and 331 pg/mL and 521 pg/mL"}]}
{"compound": "CO[C@H]1C[C@@H]2CC[C@@H](C)[C@@](O)(O2)C(=O)C(=O)N2CCCC[C@H]2C(=O)O[C@H]([C@H](C)C[C@@H]2CC[C@@H](OCCO)[C@H](OC)C2)CC(=O)[C@H](C)/C=C(\\C)[C@@H](O)[C@@H](OC)C(=O)[C@H](C)C[C@H](C)/C=C/C=C/C=C/1C", "note": "[everolimus]", "values": [{"measurement": "objective response rate", "setting": "[5]", "result": 5, "unit": "%"}]}
{"compound": "c1cc(CN2CCCNCCNCCCNCC2)ccc1CN1CCCNCCNCCCNCC1", "note": "[plerixafor, Plerixafor]", "values": [{"measurement": "tumor growth", "setting": "[6]; in combination with anti-PD-L1", "result": "synergistically decreased tumor growth"}, {"measurement": "T-cell accumulation among cancer cells", "setting": "[6]; murine pancreatic adenocarcinoma", "result": "induced rapid T-cell accumulation among the cancer cells"}, {"measurement": "anti-tumor activity, including decreased metastasis and increased overall survival", "setting": "[4]", "result": "significant anti-tumor activity"}]}
{"compound": "ipilimumab: anti-CTLA-4 antibody", "values": [{"measurement": "objective response rate", "setting": "[7]", "result": 12, "unit": "%"}]}
{"compound": "nivolumab: fully human IgG4 monoclonal antibody binding to the PD-1 receptor", "values": [{"measurement": "objective response rate", "setting": "[5]", "result": 25, "unit": "%"}, {"measurement": "incidence of Grade 3 or 4 treatment-related adverse events", "setting": "[5]; vs everolimus", "result": "lower incidence of Grade 3 or 4 treatment-related adverse events"}, {"measurement": "median overall survival", "setting": "[5]; vs everolimus", "result": "longer median overall survival"}]}
{"compound": "pembrolizumab: humanized IgG4 kappa monoclonal antibody that blocks the interaction between PD-1 and its ligands", "values": [{"measurement": "objective response rate", "setting": "[7]", "result": 33, "unit": "%"}]}
